In patent US20060178354A1, “Methods and compositions for the treatment of chronic pain using dhea and derivatives thereof” (priority 2003, published 2006):

Test system: chronic pain
Assay: Subjective pain reduction in a person with chronic pain (case report, scale of 0-100% reduction)
Type: in vivo, human
Protocol: The tasks included many different routine physical tasks, but particularly included typing and use of a computer mouse. […] DHEA (50 mg/day) was also taken alone orally for three weeks. […] The degree was subjective based on a scale of 0-100% reduction, where 0% was no pain reduction and 100% was total pain elimination.
In addition to treatment with DHEA alone, the person of Example 1, was also treated with Nortriptyline alone and with a combination of 75 mg per day DHEA and 10 mg per day Nortriptyline.

Cc1ccc(-c2cc(C(F)(F)F)nn2-c2ccc(S(N)(=O)=O)cc2)cc1 [celecoxib]
reduction in pain (400 mg/day alone, subjective scale, 0% no pain reduction, 100% total pain elimination): approximately 25%

CNCCC=C1c2ccccc2CCc2ccccc21 [Nortriptyline]
reduction in pain (alone, 10 mg per day): about 20% | reduction in pain compared with 10 mg per day (alone, 25 and 50 mg doses): to greater extent

NCC1(CC(=O)O)CCCCC1 [gabapeatin, gabapentin]
pain relief (treatment with the drug alone, person with 5 year history of chronic pain): did not result in pain relief

C[C@]12CC[C@H](O)CC1=CC[C@@H]1[C@@H]2CC[C@]2(C)C(=O)CC[C@@H]12 [DHEA, dehydroepiandrosterone]
reduction in pain (50 mg/day alone orally for three weeks, by the end of the second week, subjective scale 0-100%): approximately 25% | pain remaining, of the original pain (doses of 75 mg and I 00 mg for three weeks each, after 50 mg/day): less than 50%
